# Laboratory results taken from the METLIN SMRT retention time set (Domingo-Almenara et al. 2019).
# Assay: gradient 5% acetonitrile 3 min, to 50% in 2 min, to 85% in 15 min, held 3 min, 100 µL/min
# Details: column: Zorbax Extend-C18 2.1 x 50 mm; eluents: water / acetonitrile, 0.1% formic acid
# Procedure, shortened: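 Retention times come from adduct peaks that were picked computationally and then checked by hand. The standards, pure and pooled in mixtures of ~100 molecules, were run on a Zorbax Extend-C18 column (2.1 × 50 mm, 1.8 μm) at 100 μL/min with water and acetonitrile, each with 0.1% formic acid. Detection was by quadrupole time-of-flight mass spectrometry in positive and negative ionization mode, with a dead volume of 40 μL and a dwell volume of 900 μL.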
row,Compound,RP-LC retention time [s]
1,CCCCN(C)CCCNC(=O)c1ccc2c(c1)NC(=O)C(C(C)CC)N2 (configuration not stated),612
2,CSc1cccc(NC(=O)N2CCC(C)(C(=O)NCc3ccc(C)cc3)CC2)c1,917
3,CCC(C)NC(=O)C1CCN(S(=O)(=O)c2cc(-c3noc(C(C)C)n3)sc2C)CC1 (configuration not stated),1020
4,O=C(Nc1ccc(Br)cc1F)c1ccc(N2CCOCC2)nn1,899
5,COc1ccccc1NC(=O)c1oc2ccccc2c1NC(=O)Cc1ccc(F)cc1,1180
6,COc1ccc(C2CC(=O)N(c3ccc4c(c3)OCCO4)C(=O)C2)cc1,833
7,OC[C@@H]1CN(Cc2ccncc2F)C[C@H]1c1nc(C2CC2)no1,562
8,COc1ccc2c(=O)cc(-c3cccnc3)oc2c1OC,763
9,Cn1cccc(C(=O)N2CCC3(CC2)OCCN3S(=O)(=O)c2ccccc2)c1=O,616
10,COCCN1C(=O)[C@H]2CN(Cc3cccc4[nH]ccc34)C[C@H]2C1=O,583
11,Cn1c(=O)c2cc(C(=O)NCC3CCCCC3)nn2c2ccccc21,957
12,O=C1C(N2CCN(S(=O)(=O)c3ccccc3)CC2)CCN1CCc1ccccc1 (configuration not stated),642
13,CCCn1cc(C(=O)N2CCc3ccccc32)c2nn(-c3ccccc3)c(=O)c-2c1,840
14,CN(Cc1ccc(Cl)c(F)c1)C1CCc2nnc(C3CCOCC3)n2CC1 (configuration not stated),590
15,Cc1ccc(-n2ncc3c(=O)n(Cc4nc(-c5ccccc5)no4)cnc32)cc1Cl,1190
16,COc1ncc(C(=O)Nc2cc(C)cc(C)c2)c(C)n1,817
17,COc1cccc(COc2coc(C(=O)Nc3nnc(C)s3)cc2=O)c1,660
18,CC(=O)N1c2ccc(S(=O)(=O)N3CCCCCC3)cc2CC1C(=O)NC(C)c1ccccc1 (configuration not stated),925
19,c1cc(CN2CC(Oc3ccc(-c4noc(C5CC5)n4)cc3)C2)cs1,700

row,Compound,RP-LC retention time [s]
1,c1ccc(CNc2cc(-n3ccnc3)ncn2)cc1,610
2,CCc1ccccc1NC(=O)c1ncn2c1C(=O)N(C1CC1)C(C)(C(=O)NC1CCCC1)C2 (configuration not stated),828
3,N#Cc1ccc(NC(=O)C2CCCN(S(=O)(=O)c3cc(-c4noc(C5CCC5)n4)cs3)C2)cc1 (configuration not stated),1120
4,CC(C)N1C(=O)c2cccnc2Sc2cc(NC(=O)c3ccncc3)ccc21,662
5,COC(=O)c1ccc(C(=O)NCCN2CCN(c3ccc(F)cc3)CC2)cc1,576
6,CCc1nnc(-c2ccc(S(=O)(=O)N3CCN(C(C)C)CC3)o2)o1,592
7,Cc1cc(C2CCCN2C(=O)Nc2ccccc2Cl)on1 (configuration not stated),830
8,CCOC(=O)COc1cc(-c2ccccc2)nc2ccc(NC(=O)C3CC3)cc12,738
9,COc1cc(C(=O)N2CCN(c3cc(C(C)C)n4cnnc4n3)CC2)cc(OC)c1OC,613
10,CCCN1CCN(CCCNC(=O)C2CCN(Cc3cn(C)c4ccc(OC)cc34)CC2)CC1,533
11,O=C(CCc1c(-c2ccc(Cl)cc2)nc2ccccn12)N1CCOCC1,587
12,O=C(NCC1CCCO1)c1nc(-c2ccnc(N3CCCCCC3)c2)no1 (configuration not stated),641
13,CCc1nc(-c2csc(S(=O)(=O)N3CCCC(C(=O)Nc4c(C)cccc4CC)C3)c2)no1 (configuration not stated),1080
14,COc1ccc(CNC(=O)Nc2cc3c(cc2N2CCOCC2)n(C)c(=O)n3C)cc1,694
15,COc1ccc(C(=O)N2CCC(c3cc(N)on3)CC2)c(OC)c1,658
16,CC(=O)NC1(C(=O)O)CCCC1,617
17,CN(C)CCCn1c(C2CC(=O)N(c3ccc(F)cc3)C2)nc2ccccc21 (configuration not stated),590
18,c1coc(-c2nnc(-c3cc4ccccc4o3)o2)c1,925
